Experimental data as given in patent publication US11311522B1 (Cavion, Inc., priority 2018, dated 2022).

Key:
[1] = rat, in vivo, 300 mg/kg/day
CYP3A4 and CYP2C9 = assay: In vitro metabolism (liver microsomes, hepatocytes, recombinant CYPs, anti-CYP antibodies); type: in vitro ADME, human; conditions: 10 μM CX-8998
Source text: Glucuronide conjugates of the oxygenated metabolites are detected in human, monkey, and dog hepatocyte preparations. […] However, the abundance of CYP3A5, CYP2C19, and CYP2D6 in human liver microsomes is low (2%-5%) relative to the primary contributors, CYP3A4 (˜30%) and CYP2C9 (˜20%). […] Information on reproductive and developmental toxicology was obtained in a 28-day pivotal female fertility study in rats and in preliminary embryo-fetal development studies in rats and rabbits.

[2] = Exploratory embryofetal development study in rabbits
[3] = PN001/Part II: safety and tolerability; type: in vivo, human
Experimental: No serious adverse events were reported in the subjects who received CX-8998. One placebo-treated subject experienced a serious adverse event (peritonsillar abscess). The subject was admitted to the hospital for treatment with oral and intravenous antibiotics and was discontinued from the study because of this event. […] Each treatment period was separated from the previous one by an approximate 2-week washout, and all treatments were administered in the morning after an overnight fast. Electroencephalograms were recorded before and at selected time points for up to 24 hours after dosing in each treatment period. Cognitive and subjective assessments, including the Karolinska Sleepiness Scale and Bond-Lader visual analog scale, were also performed. 5.3.1.2.2 Pharmacodynamic Data Alpha rhythm is seen posterior brain regions in healthy adults during quiet wakefulness. It originates in the thalamus and is driven by Cav3 channel activity (Schreckenberger, 2004). Agitated, awake individuals may not display an alpha rhythm. […] Reductions in alpha power during the eyes closed position, were generally observed throughout the 24-hour postdose evaluation period for the 18 mg dose and were generally consistent across electrode sites.

[4] = 7-day dose-range-finding toxicology in female rats
[5] = test system: patients with essential tremor; assay: T-CALM substudy: iMotor digital spirography; type: in vivo, human; conditions: dominant hand
Source text: The application requires the patient to complete a cycle of evaluations measuring motor function.
For the Archimedes spiral item of iMotor, subjects are asked to draw a spiral using a digital stylus on a tablet-based application. Prompts instruct the subject to trace a dotted grey mid-line that begins at the start of the spiral without lifting the stylus off the screen. The test is not timed. Subjects are asked to complete the task twice—one with the right and one with the left hand.
Functional tremor frequency (in Hz) is calculated by the iMotor algorithm based on the number and timing of stylus crosses of the mid-line. The mean change from baseline to Day 15 and Day 28 was calculated for the dominant hand. Statistical significance was calculated by Mann-Whitney non-parametric t-test (two tailed) (FIG. 5 and Table 5).

cardiovascular function = assay: Cardiovascular function in anesthetized vagotomized dogs, IV; type: in vivo, dog; conditions: 10 mg/kg IV
[6] = test system: patients with essential tremor; assay: T-CALM: Patient Global Impression of Change (PGIC); type: in vivo, human; conditions: for PGIC (rescaled −3 to 3), LS mean (SE) / PGIC, LS mean difference from placebo (95% CI): ANCOVA; for 0 - no change / 1 - minimally improved / 2 - much improved / 3 - very much improved / −1 - minimally worse / −2 - much worse / −3 - very much worse: PGIC
Source text: Treatment success as measured by PGIC was summarized using descriptive statistics.

[7] = MR2 capsules fed versus fasted PK; type: in vivo; conditions: human, plasma, oral, 8 mg, single dose (1×8 mg) of MR2 CX-8998
Source text: Subjects will be screened for study eligibility within 28 days before administration of the first dose of study drug. Subjects who meet the study eligibility criteria will be admitted to the clinical research unit in the afternoon of the day before administration of the first dose of study drug (Period 1/Day −1).

respiratory function = assay: Respiratory function, whole body plethysmography; conditions: female, rat, in vivo
[8] = Respiratory function, whole body plethysmography; conditions: female, rat; for Cmax: plasma, po
[9] = test system: T1, guinea pig adenosine transporter; assay: Adenosine transporter inhibition; type: biochemical; conditions: 10 μM
T1 construct: other: 10 μM

[10] = Dutch Belted rabbit, oral gavage GD 7 through GD 20

CC(C)c1ccc(CC(=O)N[C@H](C)c2ccc(OCC(F)(F)F)cn2)cc1 [CX-8998]
Decrease in food consumption [1]: up to 19%
Inhibition of metabolism by antihuman CYP3A and CYP2C antibodies (CYP3A4 and CYP2C9): > 90%
Developmental toxicity ([2]; 30, 100, or 300 mg/kg/day): No evidence of developmental toxicity
dose at which maternal toxicity was excessive [2, 10]: 1000 mg/kg/day
dose at which maternal toxicity was observed [2, 10]: ≥30 mg/kg/day and was excessive at
Doses with maternal toxicity ([2]; rabbit, in vivo): ≥ 30 mg/kg/day
At least 1 adverse event ([3]; 5 mg): 8 (66.7) n (%)
Dizziness ([3]; 5 mg): 1 (8.3) n (%)
Drowsiness ([3]; 5 mg): 3 (25.0) n (%)
Euphoric mood ([3]; 5 mg): 1 (8.3) n (%)
Feeling of relaxation ([3]; 5 mg): 1 (8.3%) n (%)
Floating feeling ([3]; 5 mg): 1 (8.) n (%)
Gastrointestinal Disorders ([3]; 5 mg): 2 (16.7) n (%)
Headache ([3]; 5 mg): 1 (8.3) n (%)
Intermittent headache ([3]; 5 mg): 0 n (%)
Nausea ([3]; 5 mg): 2 (16.7) n (%)
Nervous System Disorders ([3]; 5 mg): 4 (33.3) n (%)
Psychiatric Disorders ([3]; 5 mg): 4 (33.3) n (%)
Sleep disturbance ([3]; 5 mg): 1 (8.3) n (%)
Vivid dreams ([3]; 5 mg): 2 (16.7) n (%)
At least 1 adverse event ([3]; 18 mg): 11 (91.7) n (%)
Dizziness ([3]; 18 mg): 3 (25.0) n (%)
Drowsiness ([3]; 18 mg): 3 (25.0) n (%)
Euphoric mood ([3]; 18 mg): 3 (25.0) n (%)
Feeling of relaxation ([3]; 18 mg): 3 (25.0) n (%)
Floating feeling ([3]; 18 mg): 1 (8.3) n (%)
Gastrointestinal Disorders ([3]; 18 mg): 1 (8.3) n (%)
Headache ([3]; 18 mg): 3 (25.0) n (%)
Intermittent headache ([3]; 18 mg): 2 (16.7) n (%)
Nausea ([3]; 18 mg): 1 (8.3) n (%)
Nervous System Disorders ([3]; 18 mg): 8 (66.7) n (%)
Psychiatric Disorders ([3]; 18 mg): 6 (50.0) n (%)
Sleep disturbance ([3]; 18 mg): 2 (16.7) n (%)
Vivid dreams ([3]; 18 mg): 2 (16.7) n (%)
Tolerability ([3]; single doses of 5 and 18 mg): generally well tolerated
NOEL ([4]; Sprague-Dawley rat, 7-day exploratory toxicity, oral gavage): 500 mg/kg/day
findings indicative of dose-limiting toxicity ([4]; Sprague-Dawley rat, 10, 100, or 500 mg/kg/day oral gavage for 7 days): No findings
Change from baseline in functional tremor frequency by iMotor, mean ([5]; Day 15 (8 mg BID)): −2.66 Hz
Change from baseline in functional tremor frequency by iMotor, mean ([5]; Day 28 (10 mg BID)): −2.41 Hz
Decrease in mean arterial pressure (cardiovascular function): 15%
Increase in PR interval (cardiovascular function): 7%
PGIC Improved, percent ([6]; Day 15): 66.67%
PGIC No Change, number ([6]; Day 15): 11
PGIC No Change, percent ([6]; Day 15): 28.2%
PGIC Worsened, number ([6]; Day 15): 2
PGIC Worsened, percent ([6]; Day 15): 5.12%
PGIC (rescaled −3 to 3), Mean (SD) ([6]; Day 15, N = 39): 1 (1.0)
PGIC (rescaled −3 to 3), Median (minimum, maximum) ([6]; Day 15, N = 39): 1 (−2, 3)
PGIC Category 0 No change, patients n (%) ([6]; Day 15, N = 39): 11 (28%)
PGIC Category 1 Minimally improved, patients n (%) ([6]; Day 15, N = 39): 17 (44%)
PGIC Category 2 Much improved, patients n (%) ([6]; Day 15, N = 39): 8 (21%)
PGIC Category 3 Very much improved, patients n (%) ([6]; Day 15, N = 39): 1 (3%)
PGIC Category −1 Minimally worse, patients n (%) ([6]; Day 15, N = 39): 1 (3%)
PGIC Category −2 Much worse, patients n (%) ([6]; Day 15, N = 39): 1 (3%)
PGIC Category −3 Very much worse, patients n (%) ([6]; Day 15, N = 39): 0
PGIC (rescaled −3 to 3), LS mean (SE) ([6]; Day 15): 0.9 (0.17)
PGIC, LS mean difference from placebo (95% CI) ([6]; Day 15): 0.7 (0.2, 1.1)
PGIC Improved, number ([6]; Day 28): 20
PGIC Improved, percent ([6]; Day 28): 54.05%
PGIC No Change, number ([6]; Day 28): 14
PGIC No Change, percent ([6]; Day 28): 37.84%
PGIC Worsened, number ([6]; Day 28): 3
PGIC Worsened, percent ([6]; Day 28): 8.11%
PGIC Category 0 No change, patients n (%) ([6]; Day 28, N = 39): 14 (36%)
PGIC Category 1 Minimally improved, patients n (%) ([6]; Day 28, N = 39): 10 (26%)
PGIC Category 2 Much improved, patients n (%) ([6]; Day 28, N = 39): 7 (18%)
PGIC Category 3 Very much improved, patients n (%) ([6]; Day 28, N = 39): 3 (8%)
PGIC Category −1 Minimally worse, patients n (%) ([6]; Day 28, N = 39): 1 (3%)
PGIC Category −2 Much worse, patients n (%) ([6]; Day 28, N = 39): 1 (3%)
PGIC Category −3 Very much worse, patients n (%) ([6]; Day 28, N = 39): 1 (3%)
PGIC (rescaled −3 to 3), Mean (SD) ([6]; Day 28, N=37): 1 (1.3)
PGIC (rescaled −3 to 3), Median (minimum, maximum) ([6]; Day 28, N=37): 1 (−3, 3)
PGIC (rescaled −3 to 3), LS mean (SE) ([6]; Day 28): 0.8 (0.19)
PGIC, LS mean difference from placebo (95% CI) ([6]; Day 28): 0.4 (−0.1, 0.9)
0 - no change ([6]; Day 15): 11 (28%) n (%)
1 - minimally improved ([6]; Day 15): 17 (44%) n (%)
2 - much improved ([6]; Day 15): 8 (21%) n (%)
3 - very much improved ([6]; Day 15): 1 (3%) n (%)
−1 - minimally worse ([6]; Day 15): 1 (3%) n (%)
−2 - much worse ([6]; Day 15): 1 (3%) n (%)
−3 - very much worse ([6]; Day 15): 0 n (%)
0 - no change ([6]; Day 28): 14 (36%) n (%)
1 - minimally improved ([6]; Day 28): 10 (26%) n (%)
2 - much improved ([6]; Day 28): 7 (18%) n (%)
3 - very much improved ([6]; Day 28): 3 (8%) n (%)
−1 - minimally worse ([6]; Day 28): 1 (3%) n (%)
−2 - much worse ([6]; Day 28): 1 (3%) n (%)
−3 - very much worse ([6]; Day 28): 1 (3%) n (%)
AUC [7]: 7.57 µM·h
NOEL for respiratory function (respiratory function): < 30 mg/kg
NOAEL ([8]; in vivo): 30 mg/kg
Cmax ([8]; 300 mg/kg): ~28 µM
Cmax ([8]; 2000 mg/kg): ~34 µM

C=C(C)c1ccc(CC(=O)N[C@H](C)c2ccc(OCC(F)(F)F)cn2)cc1 [M01]
Inhibition [9]: 79%
